The values below come from US20220241314A1, “COMPOSITIONS AND METHODS FOR TREATMENT OF HEPATITIS B VIRUS INFECTION” (priority 2019, published 2022).

{ppp} = triphosphate

One series deals with HBV cccDNA. The series can be described thus: cccDNA levels in HBV-infected RIG-I or MDA5 knockout HepG2-hNTCP cells (Southern blot). It is filed as cell-based, HBV (Genotype D). To be noted: HepG2-hNTCP-NT and HepG2-hNTCP-MKO cells, single treatment at 1 dpi, harvested 3 dpi. Here is the method:
FIGS. 6A-6D illustrate that F7 and poly-U/UC PAMP specifically signal IRF3 activation through RIG-I to suppress HBV cccDNA. (6A) F7 was administered for 24 hours to HepG2-hNTCP-NT (expressing non-targeting guide RNA), RKO (RIG-I knockout expressing RIG-I-targeting guide RNA), and MKO (MDA5-knock out expressing MDA5-targeting guide RNA). Cells were harvested and analyzed by immunoblot. The levels of protein expression by p-IRF3 (S386 phosphorylated, active IRF3), IRF3 (total IRF), IFIT1, RIG-I, and MDA5 relative to the expression level of tubulin were determined using respective antibodies. (6B) HepG2-hNTCP-NT, RKO, and MKO cells were treated with 100 ng,/ml of X-RNA or 100 ng/ml or 200 ng/ml of poly-U/UC PAMP for 24 hr. Cells were harvested and analyzed by immunoblot as in (6A). (6C and 6D) Cells were infected with HBV at moi of 1000 Geq/cell. After 24 hour cultures were treated with DMSO (−; negative control), CsA (treatment control), (6C) 10 μM) or F7 or (6D) X RNA or poly-U/UC PAMP. Three days later the cells were harvested, Hirt extracts prepared and subjected to Southern blot analysis using as HBV-DNA probe. The positions of mass markers are indicated. Values beneath each lane show percent cccDNA remaining compared to control treatment. […]

The test system of the next series is RIG-I. Nature of the series: IRF3 activation in RIG-I or MDA5 knockout HepG2-hNTCP cells (immunoblot). It is filed as cell-based, human. To be noted: 24 hours. The protocol: FIGS. 6A-6D illustrate that F7 and poly-U/UC PAMP specifically signal IRF3 activation through RIG-I to suppress HBV cccDNA. (6A) F7 was administered for 24 hours to HepG2-hNTCP-NT (expressing non-targeting guide RNA), RKO (RIG-I knockout expressing RIG-I-targeting guide RNA), and MKO (MDA5-knock out expressing MDA5-targeting guide RNA). Cells were harvested and analyzed by immunoblot. The levels of protein expression by p-IRF3 (S386 phosphorylated, active IRF3), IRF3 (total IRF), IFIT1, RIG-I, and MDA5 relative to the expression level of tubulin were determined using respective antibodies. (6B) HepG2-hNTCP-NT, RKO, and MKO cells were treated with 100 ng,/ml of X-RNA or 100 ng/ml or 200 ng/ml of poly-U/UC PAMP for 24 hr. Cells were harvested and analyzed by immunoblot as in (6A). (6C and 6D) Cells were infected with HBV at moi of 1000 Geq/cell. After 24 hour cultures were treated with DMSO (−; negative control), CsA (treatment control), (6C) 10 μM) or F7 or (6D) X RNA or poly-U/UC PAMP. Three days later the cells were harvested, Hirt extracts prepared and subjected to Southern blot analysis using as HBV-DNA probe. The positions of mass markers are indicated. Values beneath each lane show percent cccDNA remaining compared to control treatment.
In order to ascertain whether the activation of IRF3 and suppression of cccDNA in HBV-infected cells by F7 or poly-U/UC PAMP treatment was dependent on RIG-I rather than occurring as an off-target effect of IRF3 agonist treatment, HepG2-hNTCP cells expressing non-targeting guide RNA (HepG2-hNTCP-NT), or guide RNA for knockout (KO) of RIG-I expression (HepG2-hNTCP-RKO) or MDA5 (HepG2-hNTCP-MKO) were produced using CRISPR/Cas9 genome editing technology. […] Next, each cell population was infected with HBV followed by a single treatment with F7 or poly-U/UC PAMP at 1 dpi. Cells were harvested at 3 dpi for Southern blot analysis of cccDNA levels. Parallel cultures of each cell population were treated with DMSO or single dose X-RNA (negative control) or with CsA as a treatment control. […]
Background: A western blot detects proteins with antibodies after separation by electrophoresis.

The test system of a further series is IRF3. The series can be described thus: Immunoblot of IRF3 phosphorylation and IFIT1 expression. The settings on record: HepG2-hNTCP and dHepaRG cells, 24 and 48 hours, dose-dependent. Type of series: cell-based, human.
Setting [1] is: HepG2-hNTCP-RKO (RIG-I knockout) cells.

As for `O=C(Nc1ccc2nc(NC(=O)c3ccc4ccccc4c3)sc2c1)c1ccccc1` [F7, N-(6-benzamido-1,3-benzothiazol-2-yl)naphthalene-2-carboxamide], in the series on HBV cccDNA, the cccDNA levels entry was “reduced cccDNA levels”. Further, the “phosphorylated/activated IRF3 and IFIT1 expression” value is listed as “fully respond to F7” in the series on RIG-I (HepG2-hNTCP-NT control and HepG2-hNTCP-MKO (MDA5 knockout) cells); “do not respond to treatment” in the series on RIG-I (setting [1]). Moreover, the “IRF3 phosphorylation and IFIT1 expression” value in the series on IRF3 is “specifically induced IRF3 phosphorylation and the expression of IFIT1”.

B1: poly-U/UC PAMP: ~100 nt PAMP motif from the HCV genome comprising 5′ppp and the poly U/UC region, recognized by RIG-I; formulated in liposome (nucleic acid)
chain: GGCCAUCCUGUUUUUUUCCCUUUUUUUUUUUCUUUUUUUUUUUUUUUUUUUUUUUUUUUUUUUUUUCUCCUUUUUUUUUCCUCUUUUUUUCCUUUUCUUUCCUUU
modifications: RNA, 5' {ppp}, backbone and methylation of C not given here; formulated in liposome
notes: ~100 nt PAMP motif from the HCV genome comprising 5′ppp and the poly U/UC region, recognized by RIG-I; formulated in liposome
Take B1: in the series on HBV cccDNA, the cccDNA levels entry is recorded as “cccDNA was suppressed”. In addition, in the series on RIG-I (setting [1]), the “phosphorylated/activated IRF3 and IFIT1 expression” value was “do not respond to treatment”. In addition, the “IRF3 phosphorylation and IFIT1 expression” value in the series on IRF3 was “specifically induced IRF3 phosphorylation and the expression of IFIT1”.
